In US7795279B2, “Method of inhibiting FLT3 kinase” (Janssen Pharmaceutica NV, priority 2005, dated 2010):
Counter-ions that a name gives are not always drawn.

How the values were obtained:
MV4-11 cells = test: Inhibition of MV4-11 cell proliferation (CellTiterGlo); assay type: cell-based; details: Homo sapiens, 72 hours growth, uncertainty ±20%
Method: To assess the cellular potency of compounds of the present invention, FLT3 specific growth inhibition was measured in the leukemic cell line MV4-11 (ATCC Number: CRL-9591). MV4-11 cells are derived from a patient with childhood acute myelomonocytic leukemia with an 11q23 translocation resulting in a MLL gene rearrangement and containing an FLT3-ITD mutation (AML subtype M4)(1,2). MV4-11 cells cannot grow and survive without active FLT3ITD.
To measure proliferation inhibition by compounds of the present invention, the luciferase based CellTiterGlo reagent (Promega), which quantifies total cell number based on total cellular ATP concentration, was used. Cells are plated at 10,000 cells per well in 100 ul of in RPMI media containing penn/strep, 10% FBS and 1 ng/ml GM-CSF or 1 ng/ml IL-3 for MV4-11 and Baf3 cells respectively.
Compound dilutions or 0.1% DMSO (vehicle control) are added to cells and the cells are allowed to grow for 72 hours at standard cell growth conditions (37° C., 5% CO2). For activity measurements in MV4-11 cells grown in 50% plasma, cells were plated at 10,000 cells per well in a 1:1 mixture of growth media and human plasma (final volume of 100 μL). To measure total cell growth an equal volume of CellTiterGlo reagent was added to each well, according to the manufacturer's instructions, and luminescence was quantified. Total cell growth was quantified as the difference in luminescent counts (relative light units, RLU) of cell number at Day 0 compared to total cell number at Day 3 (72 hours of growth and/or compound treatment). One hundred percent inhibition of growth is defined as an RLU equivalent to the Day 0 reading. Zero percent inhibition was defined as the RLU signal for the DMSO vehicle control at Day 3 of growth.
Data points are an average of triplicate samples. […] Inhibition and IC50 data analysis was done with GraphPad Prism using a non-linear regression fit with a multiparamater, sigmoidal dose-response (variable slope) equation.

[1] = molecular target: T1, isolated kinase domain of the human FLT3 receptor (a.a. 571-993) (Homo sapiens, UniProt P36888); test: FLT3 fluorescence polarization kinase assay; assay type: biochemical; details: 10 nM FLT3 571-993, 150 uM ATP; uncertainty ±10%; read-out: Flt-3 Kinase IC50
T1 construct: human FLT3 receptor (a.a. 571-993)
T1 sequence (P36888 571-993): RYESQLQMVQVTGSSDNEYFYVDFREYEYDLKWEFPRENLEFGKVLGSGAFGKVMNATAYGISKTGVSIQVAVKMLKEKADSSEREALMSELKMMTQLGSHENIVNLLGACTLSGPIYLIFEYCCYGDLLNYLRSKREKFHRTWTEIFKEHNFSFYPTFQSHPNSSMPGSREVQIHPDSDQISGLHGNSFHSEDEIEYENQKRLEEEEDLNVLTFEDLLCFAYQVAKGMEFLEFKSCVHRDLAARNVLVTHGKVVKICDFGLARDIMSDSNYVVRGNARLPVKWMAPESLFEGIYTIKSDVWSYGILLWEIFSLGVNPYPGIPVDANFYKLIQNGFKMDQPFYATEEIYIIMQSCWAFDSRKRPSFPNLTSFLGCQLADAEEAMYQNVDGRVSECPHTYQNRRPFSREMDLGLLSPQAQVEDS
Text: The FLT3 FP assay utilizes the fluorescein-labeled phosphopeptide and the anti-phosphotyrosine antibody included in the Panvera Phospho-Tyrosine Kinase Kit (Green) supplied by Invitrogen. When FLT3 phosphorylates polyGlu4Tyr, the fluorescein-labeled phosphopeptide is displaced from the anti-phosphotyrosine antibody by the phosphorylated poly Glu4Tyr, thus decreasing the FP value. […] The kinase reaction is stopped with the addition of EDTA. The fluorescein-labeled phosphopeptide and the anti-phosphotyrosine antibody are added and incubated for 30 minutes at room temperature.
Data points are an average of triplicate samples. Inhibition and IC50 data analysis was done with GraphPad Prism using a non-linear regression fit with a multiparamater, sigmoidal dose-response (variable slope) equation.

Compound | IC50 (MV4-11 cells) [µM] | IC50 [1] [µM]
N#Cc1c[nH]c(C(=O)Nc2ccc(C3CCN(CCN4CCOCC4)CC3)cc2C2=CCCCC2)n1 [Example 34, 4-Cyano-1H-imidazole-2-carboxylic acid {2-cyclohex-1-enyl-4-[1-(2-morpholin-4-yl-ethyl)-piperidin-4-yl]-phenyl}-amide di-trifluoroacetic acid salt] | 0.008 | 
N#Cc1c[nH]c(C(=O)Nc2ccc(C3CCS(=O)(=O)CC3)cc2C2=CCCCC2)n1 [Example 35, 4-Cyano-1H-imidazole-2-carboxylic acid [2-cyclohex-1-enyl-4-(1,1-dioxo-hexahydro-1λ^6-thiopyran-4-yl)-phenyl]-amide] | 0.192 | 
N#Cc1c[nH]c(C(=O)Nc2ccc(C3CCNCC3)cc2C2=CCS(=O)(=O)CC2)n1 [Example 36, 4-Cyano-1H-imidazole-2-carboxylic acid [2-(1,1-dioxo-1,2,3,6-tetrahydro-1λ^6-thiopyran-4-yl)-4-piperidin-4-yl-phenyl]-amide trifluoroacetic acid salt] | 0.192 | 
CS(=O)(=O)CCN1CCC(c2ccc(NC(=O)c3nc(C#N)c[nH]3)c(C3=CCCCC3)c2)CC1 [Example 40, 4-Cyano-1H-imidazole-2-carboxylic acid {2-cyclohex-1-enyl-4-[1-(2-methanesulfonyl-ethyl)-piperidin-4-yl]-phenyl}-amide] | 0.116 | 
CN(C)CC(=O)N1CCC(c2ccc(NC(=O)c3nc(C#N)c[nH]3)c(C3=CCC(C)(C)CC3)n2)CC1 [Example 55, 4-Cyano-1H-imidazole-2-carboxylic acid [1′-(2-dimethylamino-acetyl)-6-(4,4-dimethyl-cyclohex-1-enyl)-1′,2′,3′,4′,5′,6′-hexahydro-[2,4′]bipyridinyl-5-yl]-amide trifluoroacetic acid salt] |  | 0.034

More lines, now with the values ahead:

IC50 (MV4-11 cells) [µM] | IC50 [1] [µM] | Compound
0.666 | 0.01 | Cc1cscc1-c1cc(N2CCN(C)CC2)ccc1NC(=O)c1ccc(C#N)o1 [Example 5, 5-Cyano-furan-2-carboxylic acid [4-(4-methyl-piperazin-1-yl)-2-(4-methyl-thiophen-3-yl)-phenyl]-amide]
1 |  | Cc1ccccc1-c1cc(N2CCN(C)CC2)ccc1NC(=O)c1ccc(C#N)o1 [Example 9, 5-Cyano-furan-2-carboxylic acid [2′-methyl-5-(4-methyl-piperazin-1-yl)-biphenyl-2-yl]-amide]
0.131 |  | CN1CCN(c2ccc(NC(=O)c3ccc(C#N)o3)c(C3=CCCCC3)c2)CC1 [Example 11, 5-Cyano-furan-2-carboxylic acid [2-cyclohex-1-enyl-4-(4-methyl-piperazin-1-yl)-phenyl]-amide]
> 10 |  | CN1CCN(c2ccc(NC(=O)c3ccc(C#N)o3)c(C3=CCOCC3)c2)CC1 [Example 12]
 | 0.029 | N#Cc1c[nH]c(C(=O)Nc2ccc(C3CCNCC3)cc2C2=CCCCC2)c1 [Example 13, 4-Cyano-1H-pyrrole-2-carboxylic acid (2-cyclohex-1-enyl-4-piperidin-4-yl-phenyl)-amide trifluoroacetic acid salt]
0.115 |  | Cn1ccnc1CN1CCC(c2ccc(NC(=O)c3nc(C#N)c[nH]3)c(C3=CCCC3)c2)CC1 [Example 23, 4-Cyano-1H-imidazole-2-carboxylic acid {2-cyclopent-1-enyl-4-[1-(1-methyl-1 H-imidazol-2-ylmethyl)-piperidin-4-yl]-phenyl}-amide trifluoroacetic acid salt]
0.00472 |  | C[C@@H]1CC(c2ccc(NC(=O)c3ncc(C#N)[nH]3)c(C3=CCCCC3)c2)C[C@H](C)N1 (stereo partly drawn) [Example 51a, 5-Cyano-1H-imidazole-2-carboxylic acid [2-cyclohex-1-enyl-4-(cis-2,6-dimethyl-piperidin-4-yl)-phenyl]-amide bis trifluoroacetic acid salt]
